Test results from the NIST ThermoML archive (doi:10.1021/je3011979).

Tests used:
[1] = xn = mol fraction of the nth substance listed; settings: 101 kPa, Liquid, Vibrating tube method
[2] = excess molar enthalpy (molar enthalpy of mixing); xn = mol fraction of the nth substance listed; settings: 101 kPa, Liquid, Calvet calorimetry

CCCOC(C)=O [propyl ethanoate] + CCCCCCCCCC
Settings | excess molar enthalpy [kcal/mol] | mass density [kg/m3]
[1], 291.15 K, x1 = 0.0491 | – | 735.2
[1], 291.15 K, x1 = 0.1081 | – | 740.2
[1], 291.15 K, x1 = 0.2054 | – | 749.4
[1], 291.15 K, x1 = 0.2933 | – | 758.8
[1], 291.15 K, x1 = 0.372 | – | 768
[1], 291.15 K, x1 = 0.4514 | – | 778.3
[1], 291.15 K, x1 = 0.5221 | – | 788.4
[1], 291.15 K, x1 = 0.5892 | – | 798.8
[1], 291.15 K, x1 = 0.6468 | – | 808.4
[1], 291.15 K, x1 = 0.7079 | – | 819.6
[1], 291.15 K, x1 = 0.7955 | – | 837.5
[1], 291.15 K, x1 = 0.8151 | – | 841.8
[1], 291.15 K, x1 = 0.8554 | – | 851.2
[1], 291.15 K, x1 = 0.8932 | – | 860.5
[1], 291.15 K, x1 = 0.9454 | – | 874.3
[1], 291.15 K, x1 = 0.9719 | – | 881.5
[1], 291.15 K, x1 = 1 | – | 889.6
[1], 298.15 K, x1 = 0.0402 | – | 729.1
[1], 298.15 K, x1 = 0.1191 | – | 735.7
[1], 298.15 K, x1 = 0.2077 | – | 744
[1], 298.15 K, x1 = 0.2921 | – | 752.8
[1], 298.15 K, x1 = 0.3727 | – | 762.1
[1], 298.15 K, x1 = 0.4509 | – | 772
[1], 298.15 K, x1 = 0.5172 | – | 781.2
[1], 298.15 K, x1 = 0.5788 | – | 790.5
[1], 298.15 K, x1 = 0.6343 | – | 799.5
[1], 298.15 K, x1 = 0.6912 | – | 809.6
[1], 298.15 K, x1 = 0.7504 | – | 820.9
[1], 298.15 K, x1 = 0.7988 | – | 830.9
[1], 298.15 K, x1 = 0.8462 | – | 841.5
[1], 298.15 K, x1 = 0.8882 | – | 851.7
[1], 298.15 K, x1 = 0.9267 | – | 861.6
[1], 298.15 K, x1 = 0.9583 | – | 870.2
[1], 298.15 K, x1 = 1 | – | 882.5
[1], 318.15 K, x1 = 0.064 | – | 715.5
[1], 318.15 K, x1 = 0.1164 | – | 719.7
[1], 318.15 K, x1 = 0.1961 | – | 726.8
[1], 318.15 K, x1 = 0.2794 | – | 734.8
[1], 318.15 K, x1 = 0.3548 | – | 742.9
[1], 318.15 K, x1 = 0.4333 | – | 752.2
[1], 318.15 K, x1 = 0.4936 | – | 760
[1], 318.15 K, x1 = 0.5563 | – | 768.6
[1], 318.15 K, x1 = 0.6213 | – | 778.5
[1], 318.15 K, x1 = 0.6781 | – | 788
[1], 318.15 K, x1 = 0.7226 | – | 795.8
[1], 318.15 K, x1 = 0.7733 | – | 805.5
[1], 318.15 K, x1 = 0.8247 | – | 816.1
[1], 318.15 K, x1 = 0.867 | – | 825.5
[1], 318.15 K, x1 = 0.9092 | – | 835.5
[1], 318.15 K, x1 = 0.9463 | – | 844.9
[1], 318.15 K, x1 = 1 | – | 859.8
[1], 328.15 K, x1 = 0.0485 | – | 706.6
[1], 328.15 K, x1 = 0.1075 | – | 711.1
[1], 328.15 K, x1 = 0.196 | – | 718.6
[1], 328.15 K, x1 = 0.2952 | – | 728
[1], 328.15 K, x1 = 0.3758 | – | 736.6
[1], 328.15 K, x1 = 0.4553 | – | 746
[1], 328.15 K, x1 = 0.5227 | – | 754.7
[1], 328.15 K, x1 = 0.5818 | – | 763
[1], 328.15 K, x1 = 0.6506 | – | 773.6
[1], 328.15 K, x1 = 0.7058 | – | 782.9
[1], 328.15 K, x1 = 0.7598 | – | 792.6
[1], 328.15 K, x1 = 0.8204 | – | 804.6
[1], 328.15 K, x1 = 0.8511 | – | 811.2
[1], 328.15 K, x1 = 0.8851 | – | 818.8
[1], 328.15 K, x1 = 0.9321 | – | 830.2
[1], 328.15 K, x1 = 0.958 | – | 836.9
[1], 328.15 K, x1 = 1 | – | 848.3
[2], 291.15 K, x1 = 0.0703 | 0.0935 | –
[2], 291.15 K, x1 = 0.1623 | 0.18 | –
[2], 291.15 K, x1 = 0.2528 | 0.2536 | –
[2], 291.15 K, x1 = 0.3401 | 0.305 | –
[2], 291.15 K, x1 = 0.4179 | 0.3344 | –
[2], 291.15 K, x1 = 0.4892 | 0.3482 | –
[2], 291.15 K, x1 = 0.5501 | 0.3489 | –
[2], 291.15 K, x1 = 0.6049 | 0.3413 | –
[2], 291.15 K, x1 = 0.615 | 0.3377 | –
[2], 291.15 K, x1 = 0.6649 | 0.3196 | –
[2], 291.15 K, x1 = 0.7166 | 0.2935 | –
[2], 291.15 K, x1 = 0.7751 | 0.2524 | –
[2], 291.15 K, x1 = 0.8324 | 0.202 | –
[2], 291.15 K, x1 = 0.8924 | 0.14 | –
[2], 291.15 K, x1 = 0.9524 | 0.0739 | –
[2], 298.15 K, x1 = 0.1028 | 0.127 | –
[2], 298.15 K, x1 = 0.2102 | 0.212 | –
[2], 298.15 K, x1 = 0.3062 | 0.2768 | –
[2], 298.15 K, x1 = 0.3924 | 0.3148 | –
[2], 298.15 K, x1 = 0.4676 | 0.3332 | –
[2], 298.15 K, x1 = 0.5348 | 0.3384 | –
[2], 298.15 K, x1 = 0.5925 | 0.3334 | –
[2], 298.15 K, x1 = 0.6163 | 0.3258 | –
[2], 298.15 K, x1 = 0.6615 | 0.3119 | –
[2], 298.15 K, x1 = 0.71 | 0.2856 | –
[2], 298.15 K, x1 = 0.7601 | 0.2572 | –
[2], 298.15 K, x1 = 0.8123 | 0.215 | –
[2], 298.15 K, x1 = 0.8626 | 0.169 | –
[2], 298.15 K, x1 = 0.9119 | 0.118 | –
[2], 298.15 K, x1 = 0.9581 | 0.0619 | –
[2], 318.15 K, x1 = 0.1083 | 0.133 | –
[2], 318.15 K, x1 = 0.2064 | 0.2204 | –
[2], 318.15 K, x1 = 0.3068 | 0.2894 | –
[2], 318.15 K, x1 = 0.3885 | 0.326 | –
[2], 318.15 K, x1 = 0.4625 | 0.3456 | –
[2], 318.15 K, x1 = 0.5203 | 0.3475 | –
[2], 318.15 K, x1 = 0.571 | 0.3423 | –
[2], 318.15 K, x1 = 0.6098 | 0.3325 | –
[2], 318.15 K, x1 = 0.6588 | 0.3176 | –
[2], 318.15 K, x1 = 0.7129 | 0.2928 | –
[2], 318.15 K, x1 = 0.7682 | 0.2588 | –
[2], 318.15 K, x1 = 0.8288 | 0.212 | –
[2], 318.15 K, x1 = 0.8862 | 0.153 | –
[2], 318.15 K, x1 = 0.948 | 0.0829 | –
